This passage reports inhibition and IC50 results from patent US20100298285A1, “Biclycloheteroaryl Compounds as P2x7 Modulators and Uses Thereof” (priority 2006, published 2010).

The test system of the first assay is IL-1β release, THP-1 cells. The assay is described as follows: IL-1β release assay in differentiated THP-1 cells stimulated with BzATP (Example 9). The assay is classed as cell-based. The following applies: Homo sapiens; 0.3 μM compound ("+" symbols); differentiated THP-1 cells, 250 uM BzATP; read-out: IL-1β% Inhib. @ 0.3 or 0.1 μM. In outline:
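THP-1 cells differentiated 16 h with 100 ng/mL LPS + 100 ng/mL IFN-γ, re-primed 2 h with fresh LPS 100 ng/mL, pretreated 30 min with compound, then stimulated with BzATP 250 uM final for 45 min. Supernatant IL-1β by ELISA; background-adjusted % inhibition, IC50 from four-parameter logistic fit.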
Take `O=C(Cc1cccc(C(F)(F)F)c1F)Nc1c(Cl)ccc2c1CCN(C(=O)COc1ccccc1)C2` [Compound 3152]: the inhibition at 0.3 µM was 0 to 25%.

Consider `COc1cccc(C(=O)N2CCc3c(ccc(Cl)c3NC(=O)Cc3cccc(C(F)(F)F)c3F)C2)c1` [Compound 3153], for which the inhibition at 0.3 µM was 0 to 25%.

In the case of `O=C(Cc1cccc(C(F)(F)F)c1F)Nc1c(Cl)ccc2c1CCN(C(=O)c1ccc(F)cc1)C2` [Compound 3154], the inhibition at 0.3 µM lay within 0 to 25%.

For `CC(C)(C)C(=O)N1CCc2c(ccc(Cl)c2NC(=O)Cc2cccc(C(F)(F)F)c2F)C1` [Compound 3155], the inhibition at 0.3 µM lay within 0 to 25%.

For `O=C(Cc1cccc(C(F)(F)F)c1F)Nc1c(Cl)ccc2c1CCN(C(=O)c1cccc(Cl)c1)C2` [Compound 3156], the inhibition at 0.3 µM was 0 to 25%.

For the molecule `CCC(C(=O)N1CCc2c(ccc(Cl)c2NC(=O)Cc2cccc(C(F)(F)F)c2F)C1)c1ccccc1` (stereo not shown) [Compound 3157], the inhibition at 0.3 µM was 0 to 25%.

On to `CC(C)CC(=O)N1CCc2c(ccc(Cl)c2NC(=O)Cc2cccc(C(F)(F)F)c2F)C1` [Compound 3158], for which the inhibition at 0.3 µM was in the range of 0 to 25%.

Turning to `CN(C)c1ccc(C(=O)N2CCc3c(ccc(Cl)c3NC(=O)Cc3cccc(C(F)(F)F)c3F)C2)cc1` [Compound 3159], the inhibition at 0.3 µM was in the range of 0 to 25%.

For the molecule `O=C(Cc1cccc(C(F)(F)F)c1F)Nc1c(Cl)ccc2c1CCN(C(=O)COCc1ccccc1)C2` [Compound 3160], the inhibition at 0.3 µM fell in the range of 0 to 25%.

With `N#Cc1ccc(C(=O)N2CCc3c(ccc(Cl)c3NC(=O)Cc3cccc(C(F)(F)F)c3F)C2)cc1` [Compound 3161], the inhibition at 0.3 µM lay in the range of 0 to 25%.

On to `O=C(Cc1cccc(C(F)(F)F)c1F)Nc1c(Cl)ccc2c1CCN(C(=O)C1CC1c1ccccc1)C2` (stereo not shown) [Compound 3162], for which the inhibition at 0.3 µM was in the range of 26 to 50%.

Regarding `O=C(Cc1cccc(C(F)(F)F)c1F)Nc1c(Cl)ccc2c1CCN(C(=O)c1ccc(Cl)cc1Cl)C2` [Compound 3163], the inhibition at 0.3 µM lay in the range of 26 to 50%.

With `O=C(Cc1cccc(C(F)(F)F)c1F)Nc1c(Cl)ccc2c1CCN(C(=O)C1CCC1)C2` [Compound 3164], the inhibition at 0.3 µM lay in the range of 0 to 25%.

In the case of `O=C(Cc1cccc(C(F)(F)F)c1F)Nc1c(Cl)ccc2c1CCN(C(=O)C1CC1)C2` [Compound 3165], the inhibition at 0.3 µM fell in the range of 0 to 25%.

For `O=C(Cc1cccc(C(F)(F)F)c1F)Nc1c(Cl)ccc2c1CCN(C(=O)CC1CCCC1)C2` [Compound 3166], the inhibition at 0.3 µM is 0 to 25%.

Take `O=C(Cc1cccc(C(F)(F)F)c1F)Nc1c(Cl)ccc2c1CCN(C(=O)COc1ccc(Cl)cc1)C2` [Compound 3167]: the inhibition at 0.3 µM lay within 26 to 50%.

`O=C(Cc1cccc(C(F)(F)F)c1F)Nc1c(Cl)ccc2c1CCN(C(=O)Cc1ccc(Cl)cc1)C2` [Compound 3168]: the inhibition at 0.3 µM was in the range of 0 to 25%.

Turning to `O=C(Cc1cccc(C(F)(F)F)c1F)Nc1c(Cl)ccc2c1CCN(C(=O)c1ccc(C(F)(F)F)cc1F)C2` [Compound 3169], the inhibition at 0.3 µM fell in the range of 0 to 25%.

Consider `O=C(Cc1cccc(C(F)(F)F)c1F)Nc1c(Cl)ccc2c1CCN(C(=O)c1ccccc1C(F)(F)F)C2` [Compound 3170], for which the inhibition at 0.3 µM lay within 0 to 25%.

Consider `Cc1ccc(F)c(C(=O)N2CCc3c(ccc(Cl)c3NC(=O)Cc3cccc(C(F)(F)F)c3F)C2)c1Cl` [Compound 3171], for which the inhibition at 0.3 µM fell in the range of 0 to 25%.

For `Cc1nn(-c2ccccc2)nc1C(=O)N1CCc2c(ccc(Cl)c2NC(=O)Cc2cccc(C(F)(F)F)c2F)C1` [Compound 3172], the inhibition at 0.3 µM was 0 to 25%.

Turning to `O=C(Cc1cccc(C(F)(F)F)c1F)Nc1c(Cl)ccc2c1CCN(C(=O)C1COc3ccccc3O1)C2` (stereo not shown) [Compound 3174], the inhibition at 0.3 µM was 0 to 25%.

Consider `O=C(Cc1cccc(C(F)(F)F)c1F)Nc1c(Cl)ccc2c1CCN(C(=O)c1ccc(F)cc1F)C2` [Compound 3175], for which the inhibition at 0.3 µM was 0 to 25%.

For `Cc1ccccc1C(=O)N1CCc2c(ccc(Cl)c2NC(=O)Cc2cccc(C(F)(F)F)c2F)C1` [Compound 3176], the inhibition at 0.3 µM lay in the range of 0 to 25%.

In the case of `O=C(Cc1cccc(C(F)(F)F)c1F)Nc1c(Cl)ccc2c1CCN(C(=O)c1cc(F)ccc1F)C2` [Compound 3177], the inhibition at 0.3 µM lay within 0 to 25%.

As for `O=C(Cc1cccc(C(F)(F)F)c1F)Nc1c(Cl)ccc2c1CCN(C(=O)c1ccccc1F)C2` [Compound 3178], the inhibition at 0.3 µM was 0 to 25%.

In the case of `O=C(Cc1cccc(C(F)(F)F)c1F)Nc1c(Cl)ccc2c1CCN(C(=O)c1cccc(Cl)c1Cl)C2` [Compound 3179], the inhibition at 0.3 µM lay in the range of 26 to 50%.

In the case of `Cc1cc(C(=O)N2CCc3c(ccc(Cl)c3NC(=O)Cc3cccc(C(F)(F)F)c3F)C2)no1` [Compound 3180], the inhibition at 0.3 µM was 0 to 25%.

`Cc1cc(C(=O)N2CCc3c(ccc(Cl)c3NC(=O)Cc3cccc(C(F)(F)F)c3F)C2)nn1C` [Compound 3181]: the inhibition at 0.3 µM lay in the range of 0 to 25%.

On to `O=C(Cc1cccc(C(F)(F)F)c1F)Nc1c(Cl)ccc2c1CCN(C(=O)/C=C/c1ccccc1)C2` [Compound 3182], for which the inhibition at 0.3 µM lay in the range of 0 to 25%.

For the molecule `Cc1ccc(C(=O)N2CCc3c(ccc(Cl)c3NC(=O)Cc3cccc(C(F)(F)F)c3F)C2)cc1` [Compound 3183], the inhibition at 0.3 µM was 0 to 25%.

Consider `COc1ccccc1C(=O)N1CCc2c(ccc(Cl)c2NC(=O)Cc2cccc(C(F)(F)F)c2F)C1` [Compound 3184], for which the inhibition at 0.3 µM lay within 0 to 25%.

For `O=C(Cc1cccc(C(F)(F)F)c1F)Nc1c(Cl)ccc2c1CCN(C(=O)c1cccc3ccccc13)C2` [Compound 3185], the inhibition at 0.3 µM was 0 to 25%.

Consider `CCCC(=O)N1CCc2c(ccc(Cl)c2NC(=O)Cc2cccc(C(F)(F)F)c2F)C1` [Compound 3187], for which the inhibition at 0.3 µM is 0 to 25%.

Regarding `CC(C)(C)c1ccc(C(=O)N2CCc3c(ccc(Cl)c3NC(=O)Cc3cccc(C(F)(F)F)c3F)C2)cc1` [Compound 3188], the inhibition at 0.3 µM was no less than 76%.

In the case of `O=C(Cc1cccc(C(F)(F)F)c1F)Nc1c(Cl)ccc2c1CCN(C(=O)c1ccc3ccccc3n1)C2` [Compound 3189], the inhibition at 0.3 µM is 0 to 25%.

Turning to `O=C(Cc1cccc(C(F)(F)F)c1F)Nc1c(Cl)ccc2c1CCN(C(=O)c1ccncc1)C2` [Compound 3190], the inhibition at 0.3 µM was 0 to 25%.

For `COc1ccc(C(=O)N2CCc3c(ccc(Cl)c3NC(=O)Cc3cccc(C(F)(F)F)c3F)C2)cc1OC` [Compound 3193], the inhibition at 0.3 µM was 0 to 25%.

`O=C(Cc1cccc(C(F)(F)F)c1F)Nc1c(Cl)ccc2c1CCN(C(=O)CCC1CCCCC1)C2` [Compound 3194]: the inhibition at 0.3 µM was in the range of 26 to 50%.

As for `O=C(Cc1cccc(C(F)(F)F)c1F)Nc1c(Cl)ccc2c1CCN(C(=O)c1cc(Cl)cc(Cl)c1)C2` [Compound 3195], the inhibition at 0.3 µM is 0 to 25%.

`O=C(Cc1cccc(C(F)(F)F)c1F)Nc1c(Cl)ccc2c1CCN(C(=O)c1ccc(C(F)(F)F)nc1)C2` [Compound 3196]: the inhibition at 0.3 µM fell in the range of 0 to 25%.

On to `O=C(Cc1cccc(C(F)(F)F)c1F)Nc1c(Cl)ccc2c1CCN(C(=O)c1ccc(Oc3ccccc3)nc1)C2` [Compound 3197], for which the inhibition at 0.3 µM fell in the range of 0 to 25%.

Still in this assay, the particulars now being: Homo sapiens; THP-1 cells, BzATP 250 uM, four parameter logistic fit.
A word on the IC50: it is the concentration at which inhibition is half-maximal. Lower therefore signals higher potency. On to `CC(=O)N1CCc2c(ccc(C)c2NC(=O)Cc2ccc(C(F)(F)F)c(F)c2)C1` [Compound 3201], for which inhibition was half-maximal at 175 nM (IC50).

Regarding `CCC(=O)N1CCc2c(ccc(C)c2NC(=O)Cc2ccc(C(F)(F)F)c(F)c2)C1` [Compound 3203], the half-maximal inhibitory concentration (IC50) was determined as 85.8 nM.

`Cc1ccc2c(c1NC(=O)Cc1ccc(C(F)(F)F)c(F)c1)CCN(C(=O)CCC1CCCC1)C2` [Compound 3207] came in with an IC50 of 204 nM.

On to `Cc1ccc2c(c1NC(=O)Cc1ccc(C(F)(F)F)c(F)c1)CCN(C(=O)C1CCCC1)C2` [Compound 3208], for which the IC50 came to 60.2 nM.

In turn, `Cc1ccc2c(c1NC(=O)Cc1ccc(C(F)(F)F)c(F)c1)CCN(C(=O)C(C)C)C2` [Compound 3215] yielded an IC50 of 48.6 nM.

`Cc1ccc2c(c1NC(=O)Cc1ccc(C(F)(F)F)c(F)c1)CCN(C(=O)C(C)(C)C)C2` [Compound 3220] showed an IC50 of 25.5 nM.

With `Cc1ccc2c(c1NC(=O)Cc1ccc(C(F)(F)F)c(F)c1)CCN(C(=O)CCC1CCCCC1)C2` [Compound 3251], the midpoint of inhibition, the IC50, lay at 61.9 nM.

The molecule `O=C(Cc1ccc(C(F)(F)F)c(F)c1)Nc1cccc2c1CCN(CC(O)Cc1ccccc1)C2` (stereo not shown) [Compound 3257] came in with an IC50 of 425 nM.

In turn, `CCS(=O)(=O)N1CCc2c(ccc(Cl)c2NC(=O)Cc2ccc(C(F)(F)F)c(F)c2)C1` [Compound 3272] yielded an IC50 of 51.4 nM.

Take `O=C(Cc1ccc(C(F)(F)F)c(F)c1)Nc1c(Cl)ccc2c1CCN(S(=O)(=O)c1ccccc1Cl)C2` [Compound 3287]: the IC50 worked out at 60.7 nM.

The molecule `CC(C)S(=O)(=O)N1CCc2c(ccc(Cl)c2NC(=O)Cc2ccc(C(F)(F)F)c(F)c2)C1` [Compound 3304] came in with an IC50 of 71.1 nM.

`O=C(Cc1cccc(C(F)(F)F)c1F)Nc1c(Cl)ccc2c1CCN(S(=O)(=O)C1CC1)C2` [Compound 3313] had an IC50 of 34.8 nM.

Take `CCCCS(=O)(=O)N1CCc2c(ccc(Cl)c2NC(=O)Cc2cccc(C(F)(F)F)c2F)C1` [Compound 3327]: the IC50 is 47.2 nM.

Turning to `Cc1ccc2c(c1NC(=O)Cc1ccc(C(F)(F)F)c(F)c1)CCN(S(=O)(=O)CC(F)(F)F)C2` [Compound 3406], the IC50 was 107 nM.

As for `Cc1ccc2c(c1NC(=O)Cc1ccc(C(F)(F)F)c(F)c1)CCN(S(=O)(=O)C(C)C)C2` [Compound 3414], the midpoint of inhibition, the IC50, lay at 83 nM.

With `Cc1ccc2c(c1NC(=O)Cc1ccc(C(F)(F)F)c(F)c1)CCN(S(=O)(=O)c1c(F)cccc1F)C2` [Compound 3425], inhibition was half-maximal at 78.5 nM (IC50).

Turning to `CCS(=O)(=O)N1CCc2c(ccc(C)c2NC(=O)Cc2ccc(C(F)(F)F)c(F)c2)C1` [Compound 3433], the IC50 amounted to 25.2 nM.

Turning to `CCCCS(=O)(=O)N1CCc2c(ccc(C)c2NC(=O)Cc2ccc(C(F)(F)F)c(F)c2)C1` [Compound 3448], the IC50 stood at 65.4 nM.

For `COc1ccc(OC)c(S(=O)(=O)N2CCc3c(ccc(C)c3NC(=O)Cc3ccc(C(F)(F)F)c(F)c3)C2)c1` [Compound 3452], it took 27.9 nM to reach half-maximal inhibition (IC50).
